Source: US4962111A (priority 1989, dated 1990)
In brackets after ≈: the same amount, converted by molar mass. Several values for one entry are separate records, joined by “and”; a condition that tells them apart may be missing. Equal values may be shown once.

Assays:
[1] = test system: M. tb. 311; test: microbe, parasite or virus in culture; format: cell-based; conditions: Mycobacterium tuberculosis, 99% (2 log) inhibition, pH 5.8
[2] = test system: Mycobacterium tuberculosis (laboratory mutant, nitrosoguanidine induced, resistant to pyrazinamide); format: cell-based; set-up: MIC: unit not given beside the values; conditions: for MIC: pH 5.8
[3] = test system: Mycobacterium tuberculosis (laboratory mutant, nitrosoguanidine induced, resistant to pyrazinoic acid); format: cell-based; set-up: MIC: unit not given beside the values
[4] = test system: Mycobacterial populations; conditions: cited from earlier work

In the case of C=CCOC(=O)c1cnccn1 [Allyl Pyrazinoate], the MIC [1] is reported as 6.25 µg/mL (≈ 38.1 µM).
In the case of CCCOC(=O)c1cnccn1 [n-Propyl Pyrazinoate], the MIC [1] is reported as 6.25 µg/mL (≈ 37.6 µM) and the MIC [2] is reported as 12.5 and 6.25.
With Cc1ccc(OC(=O)c2cnccn2)cc1 [p-Tolyl Pyrazinoate] the MIC [1] was 12.5 µg/mL (≈ 58.4 µM), the MIC [2] was 12.5 and 25 and the MIC ([3]; pH 5.8) was 12.5 and 6.25.
In the case of Nc1ccc(C(=O)O)c(O)c1 [p-aminosalicylic acid], the “suppression of emergence of resistance” value ([4]; combination with streptomycin) is given as “can delay development of streptomycin resistance”.
For NC(=O)c1cnccn1 [pyrazinamide], the MIC [1] was greater than 200 µg/mL, the “concentration required to achieve a 99% inhibition of growth” value [2] was greater than 200 µg/mL and the “concentration required to achieve a 99% inhibition of growth” value [3] was greater than 200 µg/mL. The development of resistance ([4]; when used alone) was “resistance develops quickly”.
In the case of O=C(OCC(F)(F)F)c1cnccn1 [β, β, β-Trifluoroethyl Pyrazinoate], the MIC [1] is reported as 25 µg/mL (≈ 121 µM).
